Each structure is given as a SMILES string.

Here are results for 28 compounds from US20250171438A1 (Agios Pharmaceuticals, Inc., priority 2022, published 2025).

For this test, the target named is T1, human PAH with the R408W mutation (Homo sapiens, UniProt P00439, R408W).
T1 construct: expressed in transfected cells
T1 sequence (P00439 1-452 R408W): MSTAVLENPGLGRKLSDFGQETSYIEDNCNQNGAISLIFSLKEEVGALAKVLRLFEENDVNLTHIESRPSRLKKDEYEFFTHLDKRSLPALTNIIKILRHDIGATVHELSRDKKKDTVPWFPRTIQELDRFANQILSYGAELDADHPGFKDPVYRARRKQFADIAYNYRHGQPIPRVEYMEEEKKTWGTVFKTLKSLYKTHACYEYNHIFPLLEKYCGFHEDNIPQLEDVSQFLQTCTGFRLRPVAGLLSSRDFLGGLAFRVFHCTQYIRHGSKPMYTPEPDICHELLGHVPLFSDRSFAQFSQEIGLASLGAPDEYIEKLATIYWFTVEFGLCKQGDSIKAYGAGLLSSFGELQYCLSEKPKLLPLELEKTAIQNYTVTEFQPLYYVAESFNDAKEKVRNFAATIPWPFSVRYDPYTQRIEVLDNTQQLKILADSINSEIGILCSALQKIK
Description: Cell Based Phenylalanine Flux Assay. As to conditions: A375 cells expressing human R408W PAH; 24 hrs compound incubation; 13C-Tyrosine by LC-MS; average where tested multiple times; read-out: AC50.

Usually AC50 stands for the midpoint of the concentration-response curve, whichever way the signal moves. As for `O=C(c1oc(C2(O)CCC2)nc1C(F)(F)F)N1CCCc2[nH]cnc2[C@@H]1c1nc2ccccc2s1` [Example 2138, (R)-(4-(benzo[d]thiazol-2-yl)-7,8-dihydroimidazo[4,5-c]azepin-5(1H,4H,6H)-yl)(2-(1-hydroxycyclobutyl)-4-(trifluoromethyl)oxazol-5-yl)methanone], the AC50 was in the range of 1000 to 5000 nM.
For `O=C(CCc1nccs1)N1CCc2[nH]cnc2[C@H]1c1nccs1` [Example 2139, (S)-3-(thiazol-2-yl)-1-(4-(thiazol-2-yl)-6,7-dihydro-1H-imidazo[4,5-c]pyridin-5(4H)-yl)propan-1-one], the concentration at half-maximal activity (AC50) is above 5000 nM.
The value for `O=C(CCc1nccs1)N1CCc2[nH]cnc2[C@H]1c1ncc(-c2ccccc2)s1` [Example 2141] was below 500 nM; that for `O=C(CCc1nccs1)N1CCc2[nH]cnc2[C@@H]1c1ncc(-c2ccccc2)s1` [Example 2142, (R)-1-(4-(5-phenylthiazol-2-yl)-6,7-dihydro-1H-imidazo[4,5-c]pyridin-5(4H)-yl)-3-(thiazol-2-yl)propan-1-one] was above 5000 nM; that for `O=C(CCc1nccs1)N1CCc2[nH]cnc2[C@H]1c1nc(-c2ccccc2)cs1` [Example 2143] was 1000 to 5000 nM.
The value for `O=C(CCc1nccs1)N1CCc2[nH]cnc2[C@@H]1c1nc(-c2ccccc2)cs1` [Example 2144, (R)-1-(4-(4-phenylthiazol-2-yl)-6,7-dihydro-1H-imidazo[4,5-c]pyridin-5(4H)-yl)-3-(thiazol-2-yl)propan-1-one] was above 5000 nM.
The value for `O=C(c1cncs1)N1CCc2[nH]cnc2[C@H]1c1ncc(-c2ccccc2)s1` [Example 2145] was below 500 nM.
On to `O=C(c1cncs1)N1CCc2[nH]cnc2[C@@H]1c1ncc(-c2ccccc2)s1` [Example 2146, (R)-(4-(5-phenylthiazol-2-yl)-6,7-dihydro-1H-imidazo[4,5-c]pyridin-5(4H)-yl)(thiazol-5-yl)methanone], for which the AC50 was above 5000 nM.
The value for `O=C(CCc1nccs1)N1CCc2[nH]cnc2[C@H]1c1nc(C2CC2)cs1` [Example 2147] was above 5000 nM.
The value for `O=C(CCc1nccs1)N1CCc2[nH]cnc2[C@H]1c1ncc(Br)s1` [Example 2148] was 1000 to 5000 nM; that for `O=C(CCc1nccs1)N1CCc2[nH]cnc2[C@@H]1c1ncc(Br)s1` [Example 2149, (R)-1-(4-(5-bromothiazol-2-yl)-6,7-dihydro-1H-imidazo[4,5-c]pyridin-5(4H)-yl)-3-(thiazol-2-yl)propan-1-one] was above 5000 nM.
The value for `O=C(CCc1nccs1)N1CCc2[nH]cnc2[C@H]1c1nc(Br)cs1` [Example 2150] was 1000 to 5000 nM.
In the case of `Cc1ncoc1C(=O)N1CC2(CC2)c2[nH]cnc2[C@H]1c1nc2ccccc2s1` [Example 2152, (S)-(4′-(benzo[d]thiazol-2-yl)spiro[cyclopropane-1,7′-imidazo[4,5-c]pyridin]-5′(1′H,4′H,6′H)-yl)(4-methyloxazol-5-yl)methanone], the half-maximal activity concentration (AC50) was 500 to 1000 nM.
The value for `O=C(c1ccno1)N1CCc2[nH]cnc2[C@H]1c1nc2cc(F)ccc2s1` [Example 2153, (S)-(4-(5-fluorobenzo [d]thiazol-2-yl)-6,7-dihydro-1H-imidazo[4,5-c]pyridin-5(4H)-yl) (iso xazol-5-yl)methanone] was 1000 to 5000 nM; that for `O=C(c1ccno1)N1CCc2[nH]cnc2[C@@H]1c1nc2cc(F)ccc2s1` [Example 2154, (R)-(4-(5-fluorobenzo [d]thiazol-2-yl)-6,7-dihydro-1H-imidazo[4,5-c]pyridin-5(4H)-yl)(isoxazol-5-yl)methanone] was above 5000 nM.
The value for `O=C(c1cnn2cc(CN3CCOCC3)ccc12)N1CCc2[nH]cnc2[C@H]1c1nc2ccccc2s1` [Example 2155] was 1000 to 5000 nM; that for `O=C(c1cnn2cc(CN3CCOCC3)ccc12)N1CCc2[nH]cnc2[C@@H]1c1nc2ccccc2s1` [Example 2156, (R)-(4-(benzo[d]thiazol-2-yl)-6,7-dihydro-1H-imidazo[4,5-c]pyridin-5(4H)-yl)(6-(morpholinomethyl)pyrazolo[1,5-a]pyridin-3-yl)methanone] was above 5000 nM; that for `[2H][C@@]1(c2nc3ccccc3s2)c2nc[nH]c2CCN1C(=O)c1cnc(-c2cnn(C)c2)s1` [Example 2157, [(4S)-4-(1,3-benzothiazol-2-yl)-4-deuterio-6,7-dihydro-1H-imidazo[4,5-c]pyridin-5-yl]-[2-(1-methylpyrazol-4-yl)thiazol-5-yl]methanone] was below 500 nM.
The value for `[2H][C@]1(c2nc3ccccc3s2)c2nc[nH]c2CCN1C(=O)c1cnc(-c2cnn(C)c2)s1` [Example 2158, [(4R)-4-(1,3-benzothiazol-2-yl)-4-deuterio-6,7-dihydro-1H-imidazo[4,5-c]pyridin-5-yl]-[2-(1-methylpyrazol-4-yl)thiazol-5-yl]methanone] was above 5000 nM.
Turning to `[2H][C@@]1(c2nc3ccccc3s2)c2nc[nH]c2CCN1C(=O)c1ocnc1C` [Example 2159, [(4S)-4-(1,3-benzothiazol-2-yl)-4-deuterio-6,7-dihydro-1H-imidazo[4,5-c]pyridin-5-yl]-(4-methyloxazol-5-yl)methanone], the AC50 is below 500 nM.
The value for `[2H][C@]1(c2nc3ccccc3s2)c2nc[nH]c2CCN1C(=O)c1ocnc1C` [Example 2160, [(4R)-4-(1,3-benzothiazol-2-yl)-4-deuterio-6,7-dihydro-1H-imidazo[4,5-c]pyridin-5-yl]-(4-methyloxazol-5-yl)methanone] was above 5000 nM; that for `[2H]c1nc2c([nH]1)CCN(C(=O)c1cnco1)[C@@H]2c1nc2c(F)cccc2s1` [Example 2161, [(4S)-2-deuterio-4-(4-fluoro-1,3-benzothiazol-2-yl)-1,4,6,7-tetrahydroimidazo[4,5-c]pyridin-5-yl]-oxazol-5-yl-methanone] was 500 to 1000 nM.
The value for `O=C(c1cnco1)N1CCc2[nH]cnc2[C@@H]1c1nc2c(F)cccc2s1` [Example 2162] was 1000 to 5000 nM.
The value for `O=C(c1oc(C2CC2)nc1C(F)(F)F)N1CCc2[nH]cnc2[C@H]1c1nc2ccccc2s1` [Example 2163] was below 500 nM.
With `O=C(c1oc(C2CC2)nc1C(F)(F)F)N1CCc2[nH]cnc2[C@@H]1c1nc2ccccc2s1` [Example 2164, (R)-(4-(benzo[d]thiazol-2-yl)-6,7-dihydro-1H-imidazo[4,5-c]pyridin-5(4H)-yl)(2-cyclopropyl-4-(trifluoromethyl)oxazol-5-yl)methanone], the AC50 is below 500 nM.
The value for `O=C(c1oc(N2CCOCC2)nc1C(F)(F)F)N1CCc2[nH]cnc2[C@H]1c1nc2ccccc2s1` [Example 2165] was below 500 nM; that for `O=C(c1ocnc1C1CC1)N1CCCC2NC=NC2[C@H]1c1nc2ccccc2s1` (stereo partly drawn) [Example 2167, ((4S)-4-(benzo[d]thiazol-2-yl)-3a,4,6,7,8,8a-hexahydroimidazo[4,5-c]azepin-5(1H)-yl)(4-cyclopropyloxazol-5-yl)methanone] was below 500 nM.
The value for `CC(C)(O)c1cc(C(=O)N2CCc3[nH]cnc3[C@@H]2c2nc3c(F)cccc3s2)on1` [Example 2169, (R)-(4-(4-fluorobenzo[d]thiazol-2-yl)-6,7-dihydro-1H-imidazo[4,5-c]pyridin-5(4H)-yl)(3-(2-hydroxypropan-2-yl)isoxazol-5-yl)methanone] was 1000 to 5000 nM.
